Results taken from patent US20010041743A1, “Use of cyclopentenone derivatives for bone and periodontal regeneration” (priority 2000, published 2001).
“Also recorded” adds a separate entry of the source.

How the values were obtained:
BMP-6 = test: Immunohistochemistry of BMP-6 expression in the titanium enclosure model; assay type: in vivo, rat; conditions: no concentration stated
Description: (§1) In one study, bone regeneration and gene expression was assayed using a titanium enclosure model, as described in Example 1 (FIG. 1). Briefly, transcortical defects were created surgically in rat femurs. A collagen sponge, loaded with a varying concentration of Δ^12PGJ2 was applied to each defect. The collagen sponge was secured by placement of the titanium enclosure, which served as a rigid and fixed geometry cell exclusion barrier. Animals were sacrificed at 10 days and bone tissue sections were prepared for immunohistology to quantify growth factor expression. Tissue sections from treated animals were also analyzed morphometrically to assess de novo bone formation of the defect areas.
(§2) Δ^12PGJ2 (Cayman Chemical, Ann Arbor, Mich.) was diluted in 0.9% NaCl, pH 7.2, to the final concentration of 1×10^−3, 1×10^−5, 1×10^−7, and 1×10^−9 M. An absorbable collagen sponge (Colla-Tec Inc. Plainsboro, N.J.) 5×1.5 mm dimensions was used as a carrier. […] The animals were monitored every day after surgery for indication of post-operative reactions. […]
(§3) The area and average intensity of positive immunostaining were measured using a microscope connected to a computerized video digital system (JAVA video analysis software, Jandel Scientific, Corte Madera, Calif.) at a magnification of 100×. […]

PDGF-A = test: Immunohistochemistry of PDGF-A expression in the titanium enclosure model; assay type: in vivo, rat; conditions: no concentration stated
Description: as §1, §2, §3

PDGF-B = test: Immunohistochemistry of PDGF-B expression in the titanium enclosure model; assay type: in vivo, rat; conditions: for PDGF-B expression in the area of the defect: 10 days
Description: as §1
(§4) Δ^12PGJ2 (Cayman Chemical, Ann Arbor, Mich.) was diluted in 0.9% NaCl, pH 7.2, to the final concentration of 1×10^−3, 1×10^−5, 1×10^−7, and 1×10^−9 M. An absorbable collagen sponge (Colla-Tec Inc. Plainsboro, N.J.) 5×1.5 mm dimensions was used as a carrier. 10 μl of each Δ^12PGJ2 solution were loaded into the collagen carrier and then the carrier was placed inside the half cylindrical titanium enclosure. This provided a dosage of 3.0 μg, 30 ng, 0.3 ng, and 3 pg Δ^12PGJ2 in each of five standardized defects. The remaining volume inside the enclosure was filled with blood collected from the defect. The enclosure was inverted, placed over the defect, and stabilized by circumosseous wiring around the femoral bone using #010 orthodontic wire. […] The animals were monitored every day after surgery for indication of post-operative reactions. […]
The area and average intensity of positive immunostaining were measured using a microscope connected to a computerized video digital system (JAVA video analysis software, Jandel Scientific, Corte Madera, Calif.) at a magnification of 100×. Three to five sections were analyzed for each femur and the data from all sections were pooled to reflect a mean value for each bone defect. […]

[1] = system: transcortical defects in rat femurs; test: Titanium enclosure model of bone regeneration (histomorphometry of cortical defect); assay type: in vivo; conditions: for percentage of new bone formation in cortical defect area (bone growth): rat femur, control value 40%
Description: as §1
Titanium enclosures were prepared by trimming and carving 0.1 mm thickness titanium plate to half cylindrical shape which had 8×1.5×2 mm in length, height, and width respectively. Both ends of the enclosures were sealed with surgical grade, self curing acrylic resin to form a closed half cylinder which is open only in the sagittal direction. The enclosures were then washed in an ultrasonic cleaning machine and autoclaved to sterilize and to create a titanium oxide surface prior to use.
Twenty-eight male Wistar rats, aged 8 weeks and weighing 350-400 g were randomly separated into 4 groups that received varying doses of Δ^12PGJ2. Two rats were housed in each cage with free access to normal laboratory diet and water ad libitum. After 7 days of acclimatization, the animals were initially anesthetized intramuscularly with Sodium pentobarbital (Nembutal sodium solution, Abbott Laboratories, Chicago, Ill.) at a dosage of 75 mg/kg of body weight. The area of intended surgery was shaved and disinfected using 90% ethyl alcohol. After pupillary reflex was inhibited, a 3-cm incision was made through skin and muscle parallel to the long axis over the dorsal aspect of both left and right femoral bone. The periosteum was incised and removed from the surface of the bone, creating an exposed area of sufficient size to place the open face of the cylindrical enclosure directly on the bone surface. Subsequently, a 5×1.5 mm transcortical defect was made through the cortical bone into the bone marrow at the midshaft region using round and cylindrical steel burs and a low speed micromotor machine. A sufficiently sterile 0.9% saline solution was used as a coolant to avoid heat-induced necrosis of surrounding bone. The femoral bone on one side of the animal was randomly chosen for treatment with Δ^12PGJ2, and the contralateral side was used as a control. FIG. 1 depicts a schematic diagram of the titanium enclosure model.
as §4

[2] = system: titanium implants placed in the rat femur; test: Titanium implant model of bone regeneration (bone height and width around implant); assay type: in vivo; conditions: for bone growth (height and width) around implant: versus control vehicle
Description: In a second study, titanium implants were placed in the rat femurto mimic human dental implant placement, as described in Example 2. Bone healing and regeneration around the implants was assessed following treatment with implants loaded with Δ^12PGJ2.
Six male Wistar rats were anesthetized as described in Example 1 for the placement of 4 titanium implants in each animal. Implants were fabricated from surgical grade titanium 1.5 mm in diameter, 2.5 mm in length with machined threads, cleaned bysonication and autoclaved prior to use. Implant sites were prepared with cooling using a dental high speed hand piece. One test and one control implant site were prepared for placement of 5 μl of test or control solution, followed by implant placement. Control implants comprised vehicle only (10% carboxymethylcellulose in normal saline). For test sites, 10^−3M or 10^−5M Δ^12PGJ2 was applied to the site following placement of the implant. Animals were monitored for 3 or 8 weeks following implantation.
Femur bones were collected and fixed in 4% paraformaldehyde, 0.1 M phosphate buffer. Samples were cleared through sequential washings of graded alcohol followed by xylene. Bones were embedded in methacrylate and sectioned with a low speed diamond saw and stained with Toluidine Blue. Two different quantitative measurements were derived from each implant to measure the amount of bone regenerated around each implant. These measurements represent the bone height from the endosteal surface to the most apical bone contact area of the implant and the mean width of that same bone calculated using three measurement references, including the endosteal surface (ES), ES +130 microns, and ES +260 microns.

BMP-2 = test: Immunohistochemistry of BMP-2 expression in the titanium enclosure model; assay type: in vivo, rat; conditions: no concentration stated
Description: as §1, §2, §3

[3] = treated versus control injuries, 10^−3M or 10^−5M applied to site

CCCCCC(O)CC=C1C(=O)C=CC1C/C=C\CCCC(=O)O (stereo not drawn) [Δ^12PGJ2, Δ^12-13,14-dihydro-9-deoxy-Δ^9-prostaglandin D2]
BMP-6 expression / induction (BMP-6): increase in BMP-6 expression; also recorded: potent and dose-dependent inducer
PDGF-A induction (PDGF-A): potent and dose-dependent inducer
PDGF-B expression in the area of the defect (PDGF-B; 10^−3M): significant increase
PDGF-B expression in the area of the defect (PDGF-B; 10^−5M): significant increase
PDGF-B expression / induction (general statement) (PDGF-B; no concentration stated): increase in PDGF-B expression; also recorded: potent and dose-dependent inducer
bone volume following administration (FIG. 2) [1]: increase in bone volume
percentage of new bone formation in cortical defect area (bone growth) ([1]; 30 ng dose in collagen sponge, 10 days): 53 % volume
increase in total bone area following treatment ([1]; 3.0 μg and 30 ng doses versus control, 10 days): ~33%
percentage of new bone formation in cortical defect area (bone growth) ([1]; 3.0 μg dose in collagen sponge, 10 days): 54 % volume
percentage of new bone formation, dose dependence ([1]; doses 3 pg to 3.0 μg, 10 days): increased in a dose-dependent manner
bone growth (height and width) around implant ([2]; 3 weeks after administration): Significantly increased bone growth
bone growth (height and width) around implant ([2]; 8 weeks after administration): Significantly increased bone growth
bone height around implant [2, 3]: significantly increased
bone width around implant [2, 3]: significantly increased
BMP-2 induction (BMP-2): potent and dose-dependent inducer
